{
  "source": "ChEMBL document CHEMBL4219051",
  "about": "“Cyclin-Dependent Kinase 8: A New Hope in Targeted Cancer Therapy?” (J Med Chem, 2018)",
  "key": {"[1]": {"biological_target": "Cyclin-dependent kinase 8 (Homo sapiens, UniProt P49336)", "sequence (P49336 whole entry)": "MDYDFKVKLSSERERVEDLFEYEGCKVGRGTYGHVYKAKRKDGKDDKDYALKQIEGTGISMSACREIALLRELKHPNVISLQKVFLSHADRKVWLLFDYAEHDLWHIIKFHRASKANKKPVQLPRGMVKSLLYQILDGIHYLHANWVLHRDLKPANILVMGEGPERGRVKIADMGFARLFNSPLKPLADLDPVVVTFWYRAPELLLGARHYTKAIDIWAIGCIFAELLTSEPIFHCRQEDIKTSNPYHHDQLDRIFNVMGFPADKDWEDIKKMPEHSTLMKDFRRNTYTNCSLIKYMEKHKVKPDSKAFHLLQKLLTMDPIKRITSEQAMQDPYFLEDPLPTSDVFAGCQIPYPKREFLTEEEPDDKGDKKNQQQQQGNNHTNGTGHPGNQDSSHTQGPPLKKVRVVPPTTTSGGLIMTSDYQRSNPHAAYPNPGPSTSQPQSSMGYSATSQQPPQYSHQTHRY", "experiment": "Inhibition of CDK8 (unknown origin)"}, "[2]": {"biological_target": "T1, Cyclin-dependent kinase 19 (Homo sapiens, UniProt Q9BWU1)", "T1 sequence (Q9BWU1 whole entry)": "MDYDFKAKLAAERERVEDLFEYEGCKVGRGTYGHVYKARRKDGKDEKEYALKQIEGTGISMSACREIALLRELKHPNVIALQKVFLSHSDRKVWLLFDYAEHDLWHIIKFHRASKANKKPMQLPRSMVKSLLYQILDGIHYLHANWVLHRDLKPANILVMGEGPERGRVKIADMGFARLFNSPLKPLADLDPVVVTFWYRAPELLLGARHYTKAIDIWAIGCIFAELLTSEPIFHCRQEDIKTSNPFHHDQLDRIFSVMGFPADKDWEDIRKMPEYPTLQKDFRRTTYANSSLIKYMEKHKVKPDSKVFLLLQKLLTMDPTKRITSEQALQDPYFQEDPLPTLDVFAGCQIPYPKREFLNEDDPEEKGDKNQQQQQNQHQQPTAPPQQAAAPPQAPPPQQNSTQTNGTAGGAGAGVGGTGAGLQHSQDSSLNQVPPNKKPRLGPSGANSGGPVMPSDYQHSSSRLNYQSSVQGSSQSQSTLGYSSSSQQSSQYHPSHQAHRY", "experiment": "Inhibition of CDK19 (unknown origin)"}, "[3]": {"biological_target": "Cyclin-dependent kinase 8/Cyclin-C (Mus musculus, UniProt Q8R3L8)", "sequence (Q8R3L8 whole entry)": "as the sequence (P49336 whole entry) above, with Q82L, D366E, N372T, S394G, T396A counted along it", "sequence (Q62447 whole entry, further chain)": "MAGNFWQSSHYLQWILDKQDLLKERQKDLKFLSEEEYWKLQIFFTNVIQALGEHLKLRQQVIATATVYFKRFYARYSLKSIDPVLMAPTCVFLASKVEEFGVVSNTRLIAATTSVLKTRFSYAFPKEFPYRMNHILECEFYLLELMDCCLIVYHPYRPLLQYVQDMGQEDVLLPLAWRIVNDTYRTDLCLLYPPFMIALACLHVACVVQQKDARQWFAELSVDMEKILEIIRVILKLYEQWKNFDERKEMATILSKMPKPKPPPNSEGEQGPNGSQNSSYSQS", "experiment": "Inhibition of CDK8/Cyclin-C in R848-stimulated mouse BMDC assessed as upregulation of IL-10 level", "type": "cell-based"}, "CDK8/Cyclin C [4]": {"biological_target": "T2, CDK8/Cyclin C (Homo sapiens, UniProt P49336)", "T2 sequence (P49336 whole entry)": "as the sequence (P49336 whole entry) above", "T2 sequence (P24863 whole entry, further chain)": "as the sequence (Q62447 whole entry, further chain) above, with T112A, V171M counted along it", "experiment": "Inhibition of CDK8/CCNC (unknown origin) using RBER-IRStide as substrate in presence of [gamma33P]ATP by radiometric method", "type": "protein-complex assay"}, "HL-60": {"test_system": "HL-60", "experiment": "Growth inhibition of human HL60 cells by alamar blue assay", "type": "functional"}, "OCI-AML2": {"test_system": "OCI-AML2", "experiment": "Growth inhibition of human OCI-AML2 cells by alamar blue assay", "type": "functional"}, "KG-1": {"test_system": "KG-1", "experiment": "Growth inhibition of human KG1 cells by alamar blue assay", "type": "functional"}, "CDK8/Cyclin C [5]": {"biological_target": "T2, CDK8/Cyclin C", "experiment": "Inhibition of CDK8/Cyclin-C (unknown origin) in presence of [gamma33P]ATP by radiometric method", "type": "protein-complex assay"}, "MV4-11 [6]": {"test_system": "MV4-11", "experiment": "Growth inhibition of human MV4-11 cells by alamar blue assay", "type": "functional"}, "[7]": {"experiment": "Growth inhibition of human MOLM16 cells by alamar blue assay", "type": "functional"}, "[8]": {"biological_target": "Cyclin-C/Cyclin-dependent kinase 19 (Homo sapiens, UniProt Q9BWU1)", "sequence (Q9BWU1 whole entry)": "as the sequence (Q9BWU1 whole entry) above", "sequence (P24863 whole entry, further chain)": "as the sequence (Q62447 whole entry, further chain) above, with T112A, V171M counted along it", "experiment": "Inhibition of CDK19/Cyclin-C (unknown origin) in presence of [gamma33P]ATP by radiometric method", "type": "protein-complex assay"}, "[9]": {"experiment": "Growth inhibition of human MOLM6 cells by alamar blue assay", "type": "functional"}, "[10]": {"experiment": "Growth inhibition of human SKNO1 cells by alamar blue assay", "type": "functional", "settings": "SKNO-1"}, "OCI-AML-3": {"test_system": "OCI-AML-3", "experiment": "Growth inhibition of human OCI-AML3 cells by alamar blue assay", "type": "functional"}, "[11]": {"biological_target": "Mitogen-activated protein kinase kinase kinase kinase 2 (Homo sapiens) (UniProt Q12851)", "sequence (Q12851 whole entry)": "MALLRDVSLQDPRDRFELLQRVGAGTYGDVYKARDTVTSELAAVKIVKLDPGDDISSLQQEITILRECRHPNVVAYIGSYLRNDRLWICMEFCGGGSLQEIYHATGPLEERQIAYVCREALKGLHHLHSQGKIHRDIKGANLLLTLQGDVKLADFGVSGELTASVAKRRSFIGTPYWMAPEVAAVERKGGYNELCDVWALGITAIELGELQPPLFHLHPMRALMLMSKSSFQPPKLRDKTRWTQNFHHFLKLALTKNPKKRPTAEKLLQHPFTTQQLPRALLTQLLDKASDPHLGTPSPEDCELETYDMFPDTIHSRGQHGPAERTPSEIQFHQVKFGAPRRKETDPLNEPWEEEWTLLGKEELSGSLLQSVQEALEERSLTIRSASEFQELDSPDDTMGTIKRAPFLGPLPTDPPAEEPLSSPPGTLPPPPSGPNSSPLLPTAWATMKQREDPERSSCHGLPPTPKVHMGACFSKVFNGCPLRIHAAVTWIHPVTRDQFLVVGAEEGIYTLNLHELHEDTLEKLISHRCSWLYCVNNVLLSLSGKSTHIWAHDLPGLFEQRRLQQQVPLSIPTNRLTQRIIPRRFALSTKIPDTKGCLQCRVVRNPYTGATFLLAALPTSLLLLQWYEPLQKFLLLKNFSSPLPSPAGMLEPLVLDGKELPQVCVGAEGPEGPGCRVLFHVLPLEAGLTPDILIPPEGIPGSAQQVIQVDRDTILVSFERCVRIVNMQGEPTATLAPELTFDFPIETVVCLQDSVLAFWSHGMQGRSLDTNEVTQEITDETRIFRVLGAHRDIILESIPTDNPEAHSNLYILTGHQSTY", "experiment": "Inhibition of MAP4K2 (unknown origin) at 2 uM relative to control"}, "[12]": {"biological_target": "Mitogen-activated protein kinase kinase kinase 19 (Homo sapiens) (UniProt Q56UN5)", "sequence (Q56UN5 whole entry)": "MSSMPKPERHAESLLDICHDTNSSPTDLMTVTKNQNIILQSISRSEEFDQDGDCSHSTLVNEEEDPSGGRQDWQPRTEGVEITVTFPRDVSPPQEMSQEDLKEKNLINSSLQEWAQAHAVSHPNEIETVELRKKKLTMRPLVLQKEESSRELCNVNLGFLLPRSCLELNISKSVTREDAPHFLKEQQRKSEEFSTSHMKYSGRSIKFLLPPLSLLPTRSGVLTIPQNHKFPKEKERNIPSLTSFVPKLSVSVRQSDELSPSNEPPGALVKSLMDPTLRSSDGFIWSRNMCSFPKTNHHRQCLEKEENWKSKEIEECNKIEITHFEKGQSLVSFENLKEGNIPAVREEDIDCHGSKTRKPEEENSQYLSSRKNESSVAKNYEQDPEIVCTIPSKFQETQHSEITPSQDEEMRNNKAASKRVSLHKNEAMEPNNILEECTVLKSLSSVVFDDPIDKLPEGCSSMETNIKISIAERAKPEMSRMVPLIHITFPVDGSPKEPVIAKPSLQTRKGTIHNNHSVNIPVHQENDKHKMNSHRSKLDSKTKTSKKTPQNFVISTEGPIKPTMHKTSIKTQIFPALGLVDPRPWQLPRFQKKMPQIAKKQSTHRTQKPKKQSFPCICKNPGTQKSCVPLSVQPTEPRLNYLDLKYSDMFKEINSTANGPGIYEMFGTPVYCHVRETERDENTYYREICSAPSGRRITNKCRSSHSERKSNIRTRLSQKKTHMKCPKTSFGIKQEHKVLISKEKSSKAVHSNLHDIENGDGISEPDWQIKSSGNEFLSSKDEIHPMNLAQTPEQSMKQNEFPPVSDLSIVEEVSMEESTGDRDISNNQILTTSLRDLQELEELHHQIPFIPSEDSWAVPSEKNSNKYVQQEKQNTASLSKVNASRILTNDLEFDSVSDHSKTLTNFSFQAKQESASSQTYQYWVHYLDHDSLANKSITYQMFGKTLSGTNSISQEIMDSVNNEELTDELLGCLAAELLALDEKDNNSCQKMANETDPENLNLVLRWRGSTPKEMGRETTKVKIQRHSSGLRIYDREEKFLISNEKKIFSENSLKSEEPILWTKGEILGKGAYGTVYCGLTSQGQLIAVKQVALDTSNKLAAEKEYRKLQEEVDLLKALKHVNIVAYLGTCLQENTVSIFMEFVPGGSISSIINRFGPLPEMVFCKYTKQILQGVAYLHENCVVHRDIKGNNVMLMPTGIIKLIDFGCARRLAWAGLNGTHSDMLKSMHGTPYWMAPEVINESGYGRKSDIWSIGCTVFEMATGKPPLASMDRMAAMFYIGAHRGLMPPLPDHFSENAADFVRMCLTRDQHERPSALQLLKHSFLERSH", "experiment": "Inhibition of YSK4 (unknown origin) at 2 uM relative to control"}, "[13]": {"biological_target": "Receptor-type tyrosine-protein kinase FLT3 (Homo sapiens) (UniProt P36888)", "experiment": "Inhibition of FLT3 (unknown origin) at 1 uM relative to control"}, "HCT-116 [14]": {"test_system": "HCT-116", "experiment": "cells", "settings": "Homo sapiens"}, "[15]": {"biological_target": "T1, Cyclin-dependent kinase 19", "experiment": "Inhibition of CDK19 (unknown origin) in presence of [gamma33P]ATP by radiometric method"}, "TF-1": {"test_system": "TF-1", "experiment": "Growth inhibition of human TF1 cells after 10 days by CellTiter-Glo assay", "type": "functional", "settings": "TF-1, 240 h"}, "SET-2 [16]": {"test_system": "SET-2", "experiment": "Growth inhibition of human SET2 cells after 10 days by CellTiter-Glo assay", "type": "functional", "settings": "SET-2, 240 h"}, "[17]": {"biological_target": "Rho-associated protein kinase 1 (Homo sapiens, UniProt Q13464)", "sequence (Q13464 whole entry)": "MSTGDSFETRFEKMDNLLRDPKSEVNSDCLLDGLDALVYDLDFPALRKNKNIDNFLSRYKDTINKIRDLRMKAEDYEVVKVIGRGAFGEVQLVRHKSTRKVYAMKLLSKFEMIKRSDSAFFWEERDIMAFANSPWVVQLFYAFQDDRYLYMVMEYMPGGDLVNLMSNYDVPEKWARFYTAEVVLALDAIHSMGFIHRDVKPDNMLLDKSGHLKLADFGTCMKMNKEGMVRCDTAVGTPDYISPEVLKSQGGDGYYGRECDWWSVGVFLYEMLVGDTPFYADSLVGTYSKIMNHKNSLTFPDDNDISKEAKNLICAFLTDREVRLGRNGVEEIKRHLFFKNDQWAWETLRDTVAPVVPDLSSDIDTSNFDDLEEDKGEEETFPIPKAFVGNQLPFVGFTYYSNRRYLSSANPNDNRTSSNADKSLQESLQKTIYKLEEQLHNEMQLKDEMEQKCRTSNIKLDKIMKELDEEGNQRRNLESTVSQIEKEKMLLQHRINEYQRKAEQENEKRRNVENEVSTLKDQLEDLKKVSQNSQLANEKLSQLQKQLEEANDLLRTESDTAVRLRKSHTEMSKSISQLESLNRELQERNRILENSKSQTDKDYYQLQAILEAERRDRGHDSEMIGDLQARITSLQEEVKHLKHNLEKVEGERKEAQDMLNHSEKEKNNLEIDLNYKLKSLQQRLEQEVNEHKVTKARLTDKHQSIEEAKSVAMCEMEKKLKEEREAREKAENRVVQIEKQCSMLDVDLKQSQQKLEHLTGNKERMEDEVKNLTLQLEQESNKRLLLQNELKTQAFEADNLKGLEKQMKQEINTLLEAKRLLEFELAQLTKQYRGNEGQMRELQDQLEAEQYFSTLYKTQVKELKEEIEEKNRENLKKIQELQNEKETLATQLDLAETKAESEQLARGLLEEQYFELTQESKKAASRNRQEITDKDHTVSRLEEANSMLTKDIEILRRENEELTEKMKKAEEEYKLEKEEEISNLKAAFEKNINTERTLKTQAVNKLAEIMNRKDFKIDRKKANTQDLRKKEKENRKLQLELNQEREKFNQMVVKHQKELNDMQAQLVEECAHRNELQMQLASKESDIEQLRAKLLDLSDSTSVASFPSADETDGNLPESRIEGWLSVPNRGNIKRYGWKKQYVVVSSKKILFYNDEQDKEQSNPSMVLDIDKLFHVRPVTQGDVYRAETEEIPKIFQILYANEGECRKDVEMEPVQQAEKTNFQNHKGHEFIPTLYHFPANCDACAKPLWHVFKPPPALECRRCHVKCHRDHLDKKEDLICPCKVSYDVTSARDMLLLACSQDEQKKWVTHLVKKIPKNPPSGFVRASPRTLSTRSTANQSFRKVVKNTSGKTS", "experiment": "Inhibition of ROCK1 (unknown origin)"}, "MEG-01": {"test_system": "MEG-01", "experiment": "Growth inhibition of human MEG01 cells after 10 days by CellTiter-Glo assay", "type": "functional", "settings": "MEG-01, 240 h"}, "[18]": {"experiment": "Growth inhibition of human SKNO1 cells after 10 days by CellTiter-Glo assay", "type": "functional", "settings": "SKNO-1, 240 h"}, "MOLM-14": {"test_system": "MOLM-14", "experiment": "Growth inhibition of human MOLM14 cells after 10 days by CellTiter-Glo assay", "type": "functional", "settings": "MOLM-14, 240 h"}, "[19]": {"biological_target": "Rho-associated protein kinase 2 (Homo sapiens, UniProt O75116)", "experiment": "Inhibition of ROCK2 (unknown origin)"}, "[20]": {"experiment": "Growth inhibition of human UKE1 cells after 10 days by CellTiter-Glo assay", "type": "functional", "settings": "UKE1, 240 h"}, "HCT-116 [21]": {"test_system": "HCT-116", "experiment": "Growth inhibition of human HCT116 cells after 7 days by CellTiter-Glo assay", "type": "functional", "settings": "HCT-116, 168 h"}, "SET-2 [22]": {"test_system": "SET-2", "experiment": "Antitumor activity against human SET2 cells xenografted in SCID Beige mouse assessed as tumor growth inhibition at 0.16 mg/kg, ip qd measured on day 33 relative to control", "type": "functional", "settings": "SET-2, ip, 792 h, read-out: TGI"}, "RS4-11": {"test_system": "RS4-11", "experiment": "Growth inhibition of human RS4:11 cells after 10 days by CellTiter-Glo assay", "type": "functional", "settings": "RS4-11, 240 h"}, "MV4-11 [23]": {"test_system": "MV4-11", "experiment": "Growth inhibition of human MV4-11 cells after 10 days by CellTiter-Glo assay", "type": "functional", "settings": "MV4-11, 240 h"}},
  "data": [
    {"smiles": "CC1CCc2nc(N)c(C#N)c(-c3cccnc3)c2C1", "note": "(stereo unspecified)", "values": [
      {"measurement": "IC50", "setting": "[1]", "value": 500, "unit": "nM"},
      {"measurement": "IC50", "setting": "[2]", "value": 30000, "unit": "nM"},
      {"measurement": "EC50", "setting": "[3]", "value": 1400, "unit": "nM"}
    ]},
    {"smiles": "N#Cc1ccc2ncnc(NCCc3ccccc3)c2c1", "values": [
      {"measurement": "IC50", "setting": "CDK8/Cyclin C [4]", "value": 280, "unit": "nM"}
    ]},
    {"smiles": "Cc1c(Br)c(Br)c2c3c1nc(N1CCNCC1)n3CCC2", "note": "[SEL-120 FREE BASE]", "values": [
      {"measurement": "GI50", "setting": "HL-60", "value": "< 1000", "unit": "nM"},
      {"measurement": "GI50", "setting": "OCI-AML2", "value": "< 1000", "unit": "nM"},
      {"measurement": "GI50", "setting": "KG-1", "value": "< 1000", "unit": "nM"},
      {"measurement": "IC50", "setting": "CDK8/Cyclin C [5]", "value": 4, "unit": "nM"},
      {"measurement": "GI50", "setting": "MV4-11 [6]", "value": "< 1000", "unit": "nM"},
      {"measurement": "GI50", "setting": "[7]", "value": "< 1000", "unit": "nM"},
      {"measurement": "IC50", "setting": "[8]", "value": 10, "unit": "nM"},
      {"measurement": "GI50", "setting": "[9]", "value": "< 1000", "unit": "nM"},
      {"measurement": "GI50", "setting": "[10]", "value": "< 1000", "unit": "nM"},
      {"measurement": "GI50", "setting": "OCI-AML-3", "value": "< 1000", "unit": "nM"}
    ]},
    {"smiles": "CN1CCN(C(=O)c2ccc3cc(CCNc4ncnc5ccc(C#N)cc45)ccc3c2)CC1", "values": [
      {"measurement": "inhibition", "setting": "[11]", "value": 69, "unit": "%"},
      {"measurement": "inhibition", "setting": "[12]", "value": 59, "unit": "%"}
    ]},
    {"smiles": "CCN1CCN(Cc2ccc(NC(=O)N[C@@H]3CCN(c4ccnc(NC)n4)C3)cc2C(F)(F)F)CC1", "values": [
      {"measurement": "inhibition", "setting": "[13]", "value": 74, "unit": "%"},
      {"measurement": "IC50", "setting": "HCT-116 [14]", "value": "> 10000", "unit": "nM"}
    ]},
    {"smiles": "CN(C)[C@H]1C[C@@]23CC[C@@]4(O2)C(=CC[C@]2(C)[C@@H](c5ccc6ccncc6c5)CC[C@H]24)C=C3[C@@H](O)[C@@H]1O", "values": [
      {"measurement": "IC50", "setting": "[15]", "value": 10, "unit": "nM"},
      {"measurement": "GI50", "setting": "TF-1", "value": 360, "unit": "nM"},
      {"measurement": "GI50", "setting": "SET-2 [16]", "value": 4, "unit": "nM"},
      {"measurement": "IC50", "setting": "[17]", "value": 250, "unit": "nM"},
      {"measurement": "GI50", "setting": "MEG-01", "value": 9, "unit": "nM"},
      {"measurement": "GI50", "setting": "[18]", "value": 1, "unit": "nM"},
      {"measurement": "GI50", "setting": "MOLM-14", "value": 5, "unit": "nM"},
      {"measurement": "IC50", "setting": "[19]", "value": 220, "unit": "nM"},
      {"measurement": "GI50", "setting": "[20]", "value": 7, "unit": "nM"},
      {"measurement": "GI50", "setting": "HCT-116 [21]", "value": "> 1000", "unit": "nM"},
      {"measurement": "inhibition in vivo at 0.16 mg/kg", "setting": "SET-2 [22]", "value": 70, "unit": "%"},
      {"measurement": "GI50", "setting": "RS4-11", "value": 3, "unit": "nM"},
      {"measurement": "GI50", "setting": "MV4-11 [23]", "value": 6, "unit": "nM"}
    ]}
  ]
}
